Each structure is given as a SMILES string. Where two headings read alike, the source gives them in different places.

In one assay the target is T1, 5-HT2C receptor (Homo sapiens, UniProt P28335).
T1 construct: expressed in transfected cells; host or cells: HEK-293 (membrane fractions)
T1 sequence (P28335 33-458): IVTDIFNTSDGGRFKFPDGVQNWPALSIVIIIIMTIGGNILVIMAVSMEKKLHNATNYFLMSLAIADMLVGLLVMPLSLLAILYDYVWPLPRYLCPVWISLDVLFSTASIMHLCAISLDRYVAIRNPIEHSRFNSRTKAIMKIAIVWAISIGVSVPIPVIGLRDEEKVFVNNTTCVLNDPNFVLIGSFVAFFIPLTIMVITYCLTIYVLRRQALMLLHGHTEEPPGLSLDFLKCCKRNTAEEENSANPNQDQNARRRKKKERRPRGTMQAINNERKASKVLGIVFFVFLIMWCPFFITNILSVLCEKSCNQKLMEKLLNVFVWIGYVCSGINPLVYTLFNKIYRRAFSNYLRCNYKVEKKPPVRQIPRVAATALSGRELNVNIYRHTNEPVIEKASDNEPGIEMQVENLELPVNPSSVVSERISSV
The note with it: literature values, cited from earlier work.

The subject of assay [1] is mouse with cerulein-induced pancreatitis. Briefly: Cerulein-induced acute pancreatitis in mouse: amylase and lipase activity in plasma. It is filed as in vivo. The note with it: for inhibition rate of amylase activity: Example 2, FIG. 2, drug 3.2 mg/Kg; for effect on amylase in blood of mice administered with cerulein / effect on lipase in blood of mice administered with cerulein: Example 1, FIG. 1, under the dorsal skin 15 min before first cerulein, ketanserin 3.2 mg/Kg. Here is the method:
Receptor subtypes involved in the onset of pancreatitis were examined with the use of antagonists of 5-HT2A receptor, 5-HT2B receptor, and 5-HT2C receptor. A mouse having acute pancreatitis induced by excessive administration of cerulein was used as an animal model. This model is not affected by food consumption, which is different from CDE pancreatitis, and thus it is possible to obtain constant pathologic features and analyze data more accurately.
An aqueous solution of cerulein (0.05 mg/Kg) was administered to a five-week-old mouse every one hour five times by hypodermic injection. Each 5-HT2 antagonist suspended in a solvent (0.5% methylcellulose in saline) was administered under the dorsal skin 15 minutes before the first administration of cerulein. […] Further, only the solvent was administered to the control group (group administered with cerulein alone) under the dorsal skin. One hour after the final administration, blood was collected, and amylase activity and lipase activity in the plasma were determined.
Effects of various 5-HT2A antagonists on amylase activity and lipase activity in plasma of cerulein-induced pancreatic mice were examined. […] Then the amylase activity and the lipase activity in plasma were determined.
Effects of various 5-HT2 antagonists on amylase activity and lipase activity in plasma of cerulein-induced pancreatic mice were examined. […] Then the amylase activity and the lipase activity in plasma were determined.

The next assay concerns the target T2, 5-HT2B receptor (Homo sapiens, UniProt P41595).
T2 construct: expressed in transfected cells; host or cells: CHO-K1 (membrane fractions)
The note with it: literature values, cited from earlier work.

The mark [2] stands for this setting: Bonhaus et al. (1995), second block of Table 1.
Setting [3] is: plasma, cerulein-induced pancreatitis mouse.

T2 sequence (P41595 whole entry): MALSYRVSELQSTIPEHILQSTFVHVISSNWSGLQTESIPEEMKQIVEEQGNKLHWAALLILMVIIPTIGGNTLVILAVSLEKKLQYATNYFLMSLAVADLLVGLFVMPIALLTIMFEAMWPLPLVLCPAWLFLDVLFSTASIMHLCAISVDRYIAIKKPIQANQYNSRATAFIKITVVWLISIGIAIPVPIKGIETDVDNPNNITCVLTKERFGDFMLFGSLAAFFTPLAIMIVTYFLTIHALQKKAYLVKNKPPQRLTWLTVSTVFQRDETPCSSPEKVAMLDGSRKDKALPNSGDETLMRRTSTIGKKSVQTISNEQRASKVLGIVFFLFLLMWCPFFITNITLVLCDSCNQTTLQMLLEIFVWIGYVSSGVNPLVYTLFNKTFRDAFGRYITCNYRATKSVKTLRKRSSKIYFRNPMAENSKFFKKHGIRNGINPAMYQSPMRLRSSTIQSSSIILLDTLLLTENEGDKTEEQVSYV

Take `O=C(CCCN1CCC2(CC1)C(=O)NCN2c1ccccc1)c1ccc(F)cc1` [spiperone]: the “5-HT2C pKi ± SEM” value at 5-HT2C receptor (setting [2]) is reported as less than 6.00. Regarding `OC(c1ccccc1)C1CCN(CCc2ccccc2)CC1` (stereo not drawn) [MDL11939], the “inhibition rate of amylase activity” value in assay [1] (setting [3]) is reported as −4%. As to `CN1C[C@H](CNC(=O)OCc2ccccc2)C[C@@H]2c3cccc4c3c(cn4C)C[C@H]21` [Metergoline, metergoline], in assay [1] (Example 3, FIG. 3, drug 3.2 mg/kg, plasma, cerulein-induced pancreatitis mouse), the “inhibition rate of amylase” value was found to be 30%. For `O=C1NCN(c2ccccc2)C12CCN(CCCOc1ccc(F)cc1)CC2` [AMI-193], the “5-HT2C pKi ± SEM” value on 5-HT2C receptor (Knight et al. (2004)) is 5.81 ± 0.16. In addition, the “inhibition rate of amylase activity” value in assay [1] (setting [3]) came to 17%. Take `Cc1cc(NC(=O)Nc2ccc3c(ccn3C)c2)sn1` [SB204741]: the “effect on amylase in blood of mice administered with cerulein” value (from here on “effect on amylase in blood”) in assay [1] is recorded as “didn't show any effect”. The “effect on lipase in blood of mice administered with cerulein” value (“effect on lipase in blood” for short) in assay [1] is on record as “didn't show any effect”. Besides, the entries for the “5-HT2B pKi ± SEM” value at 5-HT2B receptor (setting [2]) and on 5-HT2B receptor (Knight et al. (2004)) were 7.1 ± 0.08 and 6.90 ± 0.27, respectively. With `Cc1cc2c(cc1Cl)N(C(=O)Nc1ccc(Oc3cccnc3C)nc1)CC2` [SB242084], in assay [1], the “effect on amylase in blood” value is listed as “didn't show any effect” and the “effect on lipase in blood” value is recorded as “didn't show any effect”. In the case of `Cc1nc2n(c(=O)c1CCN1CCC(c3noc4cc(F)ccc34)CC1)CCCC2` [risperidone], the “inhibition rate of amylase activity” value in assay [1] (setting [3]) is listed as 52%. `O=C(c1ccc(F)cc1)C1CCN(CCn2c(=O)[nH]c3ccccc3c2=O)CC1` [ketanserin]: in assay [1], the “effect on amylase in blood” value was “significantly decreased” and the “effect on lipase in blood” value is listed as “significantly decreased”. In assay [1] (setting [3]), the “inhibition rate of amylase activity” value came to 37%.

The values are drawn from patent US20090075974A1, “AGENT FOR PROPHYLAXIS AND TREATMENT OF PANCREATITIS” (UMN Pharma Inc., priority 2005, published 2009).
